Data: US20250064941A1, “SIGLEC LIGANDS, CONJUGATES, AND METHODS OF USE THEREOF” (Osprey Biopharmaceuticals, Inc., priority 2023, published 2025)

Legend:
cynomolgus Siglec-2/CD22 = cynomolgus Siglec-2/CD22 (Macaca fascicularis, UniProt A0A2K5WCZ6); assay: biochemical; type: binding; settings: SPR, steady-state analysis; read-out: Affinity cyno CD22
Procedure, shortened: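 Compound binding measured by steady-state SPR analysis, 120 s dissociation, in HEPES-NaCl-Tween buffer pH 7.5 containing 1% DMSO, DMSO solvent-corrected. Surface: cyno CD22, sialic acids first stripped by SialoExo for 4 h at 37° C., then amine-coupled onto CM5.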

[1] = target: T1, mouse Siglec-2-Fc-Avi (CD22) (Mus musculus, UniProt P35329); assay: SPR binding affinity to mouse CD22; settings: steady-state analysis
T1 construct: made in house
T1 sequence (P35329 22-708 limits assumed): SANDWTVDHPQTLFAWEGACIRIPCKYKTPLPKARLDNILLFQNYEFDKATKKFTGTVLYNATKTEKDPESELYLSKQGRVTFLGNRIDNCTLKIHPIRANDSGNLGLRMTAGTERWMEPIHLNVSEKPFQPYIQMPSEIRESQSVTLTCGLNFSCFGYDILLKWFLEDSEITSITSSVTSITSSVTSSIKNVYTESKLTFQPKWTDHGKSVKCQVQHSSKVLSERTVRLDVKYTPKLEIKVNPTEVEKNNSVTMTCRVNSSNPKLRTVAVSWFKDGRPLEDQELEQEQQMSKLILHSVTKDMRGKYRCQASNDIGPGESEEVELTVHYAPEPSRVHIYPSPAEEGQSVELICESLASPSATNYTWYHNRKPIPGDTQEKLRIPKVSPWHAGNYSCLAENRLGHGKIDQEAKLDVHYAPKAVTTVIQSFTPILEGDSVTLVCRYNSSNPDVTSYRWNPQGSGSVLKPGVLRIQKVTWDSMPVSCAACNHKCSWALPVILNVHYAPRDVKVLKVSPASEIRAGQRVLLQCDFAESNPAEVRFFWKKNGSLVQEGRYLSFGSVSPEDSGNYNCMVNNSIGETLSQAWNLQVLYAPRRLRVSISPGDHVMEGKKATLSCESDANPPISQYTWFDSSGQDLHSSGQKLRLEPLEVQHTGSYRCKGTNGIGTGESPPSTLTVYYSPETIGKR
Procedure, shortened: (§1)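 Using a Biacore 8K, compounds were tested against biotinylated CD22 captured after sialidase treatment. The running buffer held 1% DMSO, corrected with a 0.5–2% DMSO series. Affinity was derived by steady-state analysis.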

[2] = target: T2, human Siglec-2/CD22 protein (Homo sapiens, UniProt P20273); assay: SPR binding affinity to human CD22; settings: steady-state analysis
T2 construct: purchased Acro Biosystems SI2-H82E3
T2 sequence (P20273 20-847): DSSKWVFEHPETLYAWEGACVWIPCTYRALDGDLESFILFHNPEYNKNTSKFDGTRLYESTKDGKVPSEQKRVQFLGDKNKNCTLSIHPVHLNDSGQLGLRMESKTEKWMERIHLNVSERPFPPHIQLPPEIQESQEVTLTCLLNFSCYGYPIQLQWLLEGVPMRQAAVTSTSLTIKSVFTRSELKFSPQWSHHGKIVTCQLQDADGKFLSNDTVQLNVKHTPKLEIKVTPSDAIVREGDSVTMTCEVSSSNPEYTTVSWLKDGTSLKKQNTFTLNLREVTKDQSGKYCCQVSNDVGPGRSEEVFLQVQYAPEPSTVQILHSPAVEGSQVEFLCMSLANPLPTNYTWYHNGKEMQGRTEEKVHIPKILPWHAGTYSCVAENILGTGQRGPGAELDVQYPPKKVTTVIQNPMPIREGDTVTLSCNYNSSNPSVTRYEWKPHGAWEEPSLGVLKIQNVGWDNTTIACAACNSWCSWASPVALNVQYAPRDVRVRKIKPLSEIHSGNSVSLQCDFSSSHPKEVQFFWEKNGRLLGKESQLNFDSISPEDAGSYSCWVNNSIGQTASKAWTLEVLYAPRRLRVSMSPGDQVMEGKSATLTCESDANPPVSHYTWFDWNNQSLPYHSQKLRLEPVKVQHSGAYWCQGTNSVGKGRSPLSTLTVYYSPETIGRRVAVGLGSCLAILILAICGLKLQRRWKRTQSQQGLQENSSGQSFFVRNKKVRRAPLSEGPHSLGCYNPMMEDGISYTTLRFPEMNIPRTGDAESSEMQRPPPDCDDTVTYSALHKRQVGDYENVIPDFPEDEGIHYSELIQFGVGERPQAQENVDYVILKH
Procedure, shortened: as §1

Chain of cynomolgus Siglec-2/CD22 (A0A2K5WCZ6 entry or part of it): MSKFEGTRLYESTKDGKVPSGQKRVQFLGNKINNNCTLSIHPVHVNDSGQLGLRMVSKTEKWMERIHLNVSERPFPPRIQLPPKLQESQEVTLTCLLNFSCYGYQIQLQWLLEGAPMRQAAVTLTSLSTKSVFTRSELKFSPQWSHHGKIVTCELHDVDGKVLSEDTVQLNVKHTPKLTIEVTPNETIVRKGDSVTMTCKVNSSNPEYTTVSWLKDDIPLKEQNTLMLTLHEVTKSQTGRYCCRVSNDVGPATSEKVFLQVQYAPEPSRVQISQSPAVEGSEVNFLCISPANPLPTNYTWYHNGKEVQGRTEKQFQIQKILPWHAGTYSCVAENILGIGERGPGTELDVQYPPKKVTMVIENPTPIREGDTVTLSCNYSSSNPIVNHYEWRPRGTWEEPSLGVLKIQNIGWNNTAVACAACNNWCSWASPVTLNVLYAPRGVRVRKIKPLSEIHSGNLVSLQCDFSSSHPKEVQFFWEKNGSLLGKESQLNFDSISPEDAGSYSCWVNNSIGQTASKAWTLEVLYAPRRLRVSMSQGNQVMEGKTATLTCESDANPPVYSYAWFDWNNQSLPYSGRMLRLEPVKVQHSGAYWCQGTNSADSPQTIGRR

Row | SMILES | Kd (cynomolgus Siglec-2/CD22) [nM] | Kd [1] [nM] | Kd [2] [nM]
1 | C#CCOCCOCCO[C@]1(C(=O)O)C[C@H](O)[C@@H](NC(=O)NCC(F)(F)F)[C@H]([C@H](O)[C@H](O)CNC(=O)Cc2ccc(-c3ccc(O)cc3)cc2)O1 [Compound 199, (2R,4S,5R,6R)-6-((1R,2R)-1,2-dihydroxy-3-(2-(4′-hydroxy-[1,1′-biphenyl]-4-yl)acetamido)propyl)-4-hydroxy-2-(2-(2-(prop-2-yn-1-yloxy)ethoxy)ethoxy)-5-(3-(2,2,2-trifluoroethyl)ureido)tetrahydro-2H-pyran-2-carboxylic acid] | > 10000 | > 10000 | > 10000
2 | CC(=O)NCCOCCOCCOCCOCCC(=O)NCCOCCOCCO[C@]1(C(=O)O)C[C@H](O)[C@@H](NC(C)=O)[C@H]([C@H](O)[C@H](O)CNC(=O)Cc2ccc(Cl)cc2)O1 [Compound 274, (2R,4S,5R,6R)-5-acetamido-6-((1R,2R)-3-(2-(4-chlorophenyl)acetamido)-1,2-dihydroxypropyl)-2-((2,18-dioxo-6,9,12,15,22,25-hexaoxa-3,19-diazaheptacosan-27-yl)oxy)-4-hydroxytetrahydro-2H-pyran-2-carboxylic acid] | > 10000 | > 10000 | > 10000
3 | C#CCCOc1ccc(CO[C@]2(C(=O)O)C[C@H](O)[C@@H](NC(=O)CO)[C@H]([C@H](O)[C@H](O)CNC(=O)Cc3ccc(Cl)cc3)O2)cc1 [Compound 124, (2R,4S,5R,6R)-2-((4-(but-3-yn-1-yloxy)benzyl)oxy)-6-((1R,2R)-3-(2-(4-chlorophenyl)acetamido)-1,2-dihydroxypropyl)-4-hydroxy-5-(2-hydroxyacetamido)tetrahydro-2H-pyran-2-carboxylic acid] | 1000 to 10000 | < 1000 | < 1000
4 | C#CCOc1ccc(CO[C@]2(C(=O)O)C[C@H](O)[C@@H](NC(=O)CO)[C@H]([C@H](O)[C@H](O)CNC(=O)Cc3ccc(-c4ccc(O)cc4)cc3Cl)O2)cc1 [Compound 52, (2R,4S,5R,6R)-6-((1R,2R)-3-(2-(3-chloro-4′-hydroxy-[1,1′-biphenyl]-4-yl)acetamido)-1,2-dihydroxypropyl)-4-hydroxy-5-(2-hydroxyacetamido)-2-((4-(prop-2-yn-1-yloxy)benzyl)oxy)tetrahydro-2H-pyran-2-carboxylic acid] | 1000 to 10000 | < 1000 | < 1000
5 | C#CCOCCCCCCO[C@]1(C(=O)O)C[C@H](O)[C@@H](NC(=O)COc2ccccc2)[C@H]([C@H](O)[C@H](O)CNC(=O)Cc2ccc(Cl)cc2)O1 [Compound 91, (2R,4S,5R,6R)-6-((1R,2R)-3-(2-(4-chlorophenyl)acetamido)-1,2-dihydroxypropyl)-4-hydroxy-5-(2-phenoxyacetamido)-2-((6-(prop-2-yn-1-yloxy)hexyl)oxy)tetrahydro-2H-pyran-2-carboxylic acid] | < 1000 | > 10000 | 1000 to 10000

Second part, the compound after the results:

Row | Kd (cynomolgus Siglec-2/CD22) [nM] | Kd [1] [nM] | Kd [2] [nM] | SMILES
6 | < 1000 | 1000 to 10000 | 1000 to 10000 | C#CCOCCCCCCO[C@]1(C(=O)O)C[C@H](O)[C@@H](NC(=O)CO)[C@H]([C@H](O)[C@H](O)CNC(=O)Cc2ccc(C#N)cc2)O1 [Compound 162, (2R,4S,5R,6R)-6-((1R,2R)-3-(2-(4-cyanophenyl)acetamido)-1,2-dihydroxypropyl)-4-hydroxy-5-(2-hydroxyacetamido)-2-((6-(prop-2-yn-1-yloxy)hexyl)oxy)tetrahydro-2H-pyran-2-carboxylic acid]
7 | 1000 to 10000 | 1000 to 10000 | 1000 to 10000 | C#CCOCCOCCO[C@]1(C(=O)O)C[C@H](O)[C@@H](NC(=O)CO)[C@H]([C@H](O)[C@H](O)CNC(=O)Cc2ccc(-c3cccc(C(=O)NC)c3)cc2)O1 [Compound 80, (2R,4S,5R,6R)-6-((1R,2R)-1,2-dihydroxy-3-(2-(3′-(methylcarbamoyl)-[1,1′-biphenyl]-4-yl)acetamido)propyl)-4-hydroxy-5-(2-hydroxyacetamido)-2-(2-(2-(prop-2-yn-1-yloxy)ethoxy)ethoxy)tetrahydro-2H-pyran-2-carboxylic acid]
8 | < 1000 | 1000 to 10000 | < 1000 | C#CCOCCCCCCO[C@]1(C(=O)O)C[C@H](O)[C@@H](NC(=O)C(=O)Nc2ccccc2)[C@H]([C@H](O)[C@H](O)CNC(=O)Cc2ccc(Cl)cc2)O1 [Compound 188, (2R,4S,5R,6R)-6-((1R,2R)-3-(2-(4-chlorophenyl)acetamido)-1,2-dihydroxypropyl)-4-hydroxy-5-(2-oxo-2-(phenylamino)acetamido)-2-((6-(prop-2-yn-1-yloxy)hexyl)oxy)tetrahydro-2H-pyran-2-carboxylic acid]
9 | < 1000 | < 1000 | < 1000 | C#CCNc1c(NCCCCCCO[C@]2(C(=O)O)C[C@H](O)[C@@H](NC(N)=O)[C@H]([C@H](O)[C@H](O)CNC(=O)Cc3ccc(-c4ccccc4)cc3)O2)c(=O)c1=O [Compound 224, (2R,4S,5R,6R)-6-((1R,2R)-3-(2-([1,1′-biphenyl]-4-yl)acetamido)-1,2-dihydroxypropyl)-2-((6-((3,4-dioxo-2-(prop-2-yn-1-ylamino)cyclobut-1-en-1-yl)amino)hexyl)oxy)-4-hydroxy-5-ureidotetrahydro-2H-pyran-2-carboxylic acid]
10 | 1000 to 10000 | 1000 to 10000 | 1000 to 10000 | C#CCOCCOCCNc1c(NCCCCCCO[C@]2(C(=O)O)C[C@H](O)[C@@H](NC(=O)CO)[C@H]([C@H](O)[C@H](O)CNC(=O)c3cccc(C(F)F)c3)O2)c(=O)c1=O [Compound 233, (2R,4S,5R,6R)-6-((1R,2R)-3-(3-(difluoromethyl)benzamido)-1,2-dihydroxypropyl)-2-((6-((3,4-dioxo-2-((2-(2-(prop-2-yn-1-yloxy)ethoxy)ethyl)amino)cyclobut-1-en-1-yl)amino)hexyl)oxy)-4-hydroxy-5-(2-hydroxyacetamido)tetrahydro-2H-pyran-2-carboxylic acid]
11 | < 1000 | < 1000 | < 1000 | C#CCOCCNC(=O)CCCCCCO[C@]1(C(=O)O)C[C@H](O)[C@@H](NC(=O)CO)[C@H]([C@H](O)[C@H](O)CNC(=O)Cc2ccc(C(F)F)cc2)O1 [Compound 213, (2R,4S,5R,6R)-6-((1R,2R)-3-(2-(4-(difluoromethyl)phenyl)acetamido)-1,2-dihydroxypropyl)-4-hydroxy-5-(2-hydroxyacetamido)-2-((7-oxo-7-((2-(prop-2-yn-1-yloxy)ethyl)amino)heptyl)oxy)tetrahydro-2H-pyran-2-carboxylic acid]
12 | < 1000 | 1000 to 10000 | < 1000 | C#CCOCCOCCNc1c(NCCCCCCO[C@]2(C(=O)O)C[C@H](O)[C@@H](NC(=O)CO)[C@H]([C@H](O)[C@H](O)CNC(=O)c3ccc(C(F)F)cc3)O2)c(=O)c1=O [Compound 231, (2R,4S,5R,6R)-6-((1R,2R)-3-(4-(difluoromethyl)benzamido)-1,2-dihydroxypropyl)-2-((6-((3,4-dioxo-2-((2-(2-(prop-2-yn-1-yloxy)ethoxy)ethyl)amino)cyclobut-1-en-1-yl)amino)hexyl)oxy)-4-hydroxy-5-(2-hydroxyacetamido)tetrahydro-2H-pyran-2-carboxylic acid]
